Test results as given in ChEMBL document CHEMBL5608141, “Identification of compartment-specific drug sensitivities in CRC organoid-stroma co-cultures” (2024).

What was measured:
Assay type in all cases: functional, Homo sapiens
Parameters in all cases: dose or concentration left out as unconfirmed
Colon cancer organoid [1] = test: Identification of compartment-specific drug sensitivities in O06 CRC organoid-stroma F06 CAF co-cultures. Organoid is transduced with Lucferase2-P2A-EGFP lentivirus, fibroblast with Renilla-dsRed lentivirus. Dual-Glo Luciferase assay is used to report viability data.
Colon cancer organoid [2] = test: Identification of compartment-specific drug sensitivities in O20 CRC organoid-stroma F20 CAF co-cultures. Organoid is transduced with Lucferase2-P2A-EGFP lentivirus, fibroblast with Renilla-dsRed lentivirus. Dual-Glo Luciferase assay is used to report viability data.
Colon cancer organoid [3] = test: Identification of compartment-specific drug sensitivities in O14 CRC organoid-stroma F14 CAF co-cultures. Organoid is transduced with Lucferase2-P2A-EGFP lentivirus, fibroblast with Renilla-dsRed lentivirus. Dual-Glo Luciferase assay is used to report viability data.
[4] = Transduced with Lucferase2-P2A-EGFP lentivirus
[5] = Transduced with Renilla-dsRed lentivirus

Compound	Cell Viability (Colon cancer organoid [1]; [4])	Cell Viability (Colon cancer organoid [1]; [5])	Cell Viability (Colon cancer organoid [2]; [4])	Cell Viability (Colon cancer organoid [2]; [5])	Cell Viability (Colon cancer organoid [3]; [4])	Cell Viability (Colon cancer organoid [3]; [5])
Cc1c(NC(=O)c2ccc(C(C)(C)C)cc2)cccc1-c1cn(C)c(=O)c(Nc2ccc(C(=O)N3CCOCC3)cc2)n1	105.279%	113.435%	110.349%	88.3582%	92.1091%	94.7887%
COc1cc(Nc2nccc(-c3cnn4nc(OC)ccc34)n2)cc(C(F)(F)F)c1	29.547%	143.538%	11.0854%	189.711%	7.4245%	53.4313%
Cc1sc2c(c1C)C(c1ccc(Cl)cc1)=N[C@@H](CC(=O)OC(C)(C)C)c1nnc(C)n1-2	24.0633%	301.325%	11.1793%	145.881%	31.858%	201.171%
COc1cc2c(cc1-c1c(C)noc1C)ncc1[nH]c(=O)n([C@H](C)c3ccccn3)c12	43.5488%	325.273%	26.1265%	172.215%	55.7493%	184.963%
CCCc1cc(C)[nH]c(=O)c1CNC(=O)c1cc(-c2ccnc(N3CCN(C)CC3)c2)cc2c1cnn2C(C)C	75.6598%	125.188%	56.2508%	146.305%	87.4027%	100.827%
CCCCNc1ncc(-c2ccc(CN3CCOCC3)cn2)c(N[C@H]2CC[C@H](O)CC2)n1	22.8495%	123.664%	8.867%	223.767%	12.9881%	77.7799%
CC(C)NC(=O)N1CC[C@H](NC2=Nc3cc(F)ccc3N(CC(F)F)c3ccc(Cl)cc32)C1	50.3719%	97.5535%	55.1322%	142.836%	92.2307%	99.3787%
COc1cc(-c2cn([C@H]3CCc4c(F)cccc4N(CC(F)(F)F)C3=O)nn2)ccc1-n1cnc(C)c1	62.2519%	94.2085%	119.382%	109.286%	128.088%	98.8677%
CN1CCN(c2ccc(-c3cccc(CN4CCOCC4)c3)cc2NC(=O)c2c[nH]c(=O)cc2C(F)(F)F)CC1	91.1397%	122.014%	82.8822%	116.555%	95.9628%	85.2187%
CCc1cc2cc(NS(=O)(=O)c3ccc(C#N)cc3)ccc2n(CC)c1=O	88.2132%	102.933%	196.577%	99.0217%	120.494%	98.1699%
Cn1c(=O)[nH]c2cc(N3C(=O)c4cccc5c(CCCO)ccc(c45)C3=O)ccc21	115.119%	110.623%	127.541%	89.8045%	148.781%	92.4291%
CC(C)(O)[C@H](F)CN1Cc2cc(NC(=O)c3cnn4cccnc34)c(N3CCOCC3)cc2C1=O	120.796%	89.8431%	123.644%	88.3121%	105.194%	83.4987%
CN1CCN(Cc2cc(NC(=O)c3ccc4c(c3)CN(c3ccccc3)CC4)cc(C(F)(F)F)c2)CC1	105.854%	147.303%	90.0307%	84.0381%	122.837%	90.754%
Cc1cn(-c2cc(NC(=O)c3ccc4c(c3)CN(c3cncnc3)C[C@@H]4C)cc(C(F)(F)F)c2)cn1	82.9908%	122.253%	88.3808%	107.854%	141.09%	97.6954%
Cc1cccc(-c2cnc3occ(-c4ccc(C(=O)O)c(C5CCCC5)c4)c3c2)c1	94.5335%	126.561%	88.6258%	133.429%	146.067%	87.0815%
CN(C)C(=O)c1ccc(-c2cc(C(=O)N[C@@H]3CCc4ccccc43)no2)cc1O	113.879%	93.2478%	99.2292%	104.475%	90.3054%	109.902%
